# Where a name gives a salt, the structure may show the parent alone.
# Tested on: cyclooxygenase
# Experiment: standard assay system using polymorphonuclear leukocytes, HHT or TXB2 production
# Type: cell-based
# Conditions: polymorphonuclear leukocytes from guinea pig (whole cells), [1-14C] arachidonic acid, 37°C, 5 minutes; production of HHT or TXB2; read-out: concentrations for 50% inhibitions on cyclooxygenase
# Description: Therefore, it is comfirmed that the compound (a) inhibits both enzymes at the same time at a very low concentration, and that the compounds (b), (c) and (d) inhibit 5-lipoxygenase slightly specifically at a very low concentration.
# The experiments for screening using polymorphonuclear leukocytes were carried out as follows: The reaction mixture (0.1 ml) containing 5 µmole of potassium phosphase at pH 7.4, 0.1 µmole of calcium chloride, polymorphonuclear leukocytes prepared from guinea pigs (4 x 10^7 cells) and test compound was preincubated for 5 minutes at 37°C. The reaction was started by the addition of [1-^14C] arachidonic acid (2.2 x 10^3 dpm, 1.8 pmole), followed by the incubation at 37°C for 5 minutes. The reaction was terminated by the addition of 0.3 ml of a mixture of ether/methanol/lM citric acid (30/4/1). The organic phase (20 µl) was applied to silica gel plate. Thin layer chromatography was performed to separate each product with solvent system of ether/petroleum ether/acetic acid (85/15/0.1).
# Activities of 5-lipoxygenase and cyclooxygenase were calculated from the measurements of the productions of 5-HETE, and 12L-hydroxy-5, 8, 10-[…] acid (i.e. HHT) or thromboxane B2 (i.e. TXB2) respectively. [it has been known that HHT and TXB2 were the last products of the system concerning cyclooxygenase in the arachidonate cascade.] The concentrations for 50% inhibitions on 5-lipoxygenase and on cyclooxygenase were evaluated by using the concentrations of compounds of the present invention required 50% inhibitions on the productions of 5-HETE, and HHT or TXB2.
row,IC50 [nM],Structure (SMILES)
1,2200,"CCOC(=O)/C=C/c1ccc(O)c(N)c1 [Example 1(d), 2-Amino-4-[2-ethoxycarbonyl-(1E)-vinyl]-phenol hydrochloride]"
2,10000,"Nc1cc(/C=C/C(=O)OCc2ccc(-c3ccccc3)cc2)ccc1O [Example 1(h), 2-Amino-4-[2-[4-biphenylmethbxycarbonyl]-(1E)-vinyl]-phenol]"
3,600,"CCOC(=O)/C=C/c1cc(Sc2ccccc2)cc(N)c1O [Example 1(j), 2-Amino-6-[2-ethoxycarbonyl-(lE)-vinyl]-4-phenylthiophenol hydrochloride]"
4,1000,"CCOC(=O)/C=C/c1cccc(N)c1O [Example 1, 2-Amino-6-[2-ethoxycarbonyl-(lE)-vinyl]-phenol hydrochloride]"

# Tested on: mice
# Experiment: acute toxicity by intravenous injection
# Type: in vivo
# Conditions: intravenous injection to tail vein, doses of 30 mg/Kg
# Description: On the other hand, all extent of the compounds of the present invention were confirmed that their acute toxicities were more than 30 mg/Kg by intravenous injection. Therefore, the compounds of the present invention may be considered to be sufficiently safe and suitable for medical use.
row,Structure (SMILES),dead cases in test of acute toxicity
1,"CCOC(=O)/C=C/c1cc(Cl)cc(N)c1O.Cl [Example 1(a), 2-Amino-4-chloro-6-[2-ethoxycarbonyl-(1E)-vinyl]phenol hydrochloride]",no dead case in 21 cases
2,"CCOC(=O)/C=C/C=C/c1cc(Cl)cc(N)c1O [Example 1(b), 2-Amino-4-chloro-6-[4-ethoxycarbonyl-(lE, 3E)-butadienyl]phenol hydrochloride]",no dead case in 21 cases
3,"COC(=O)/C=C/c1cc(N)c(O)c(OC)c1.Cl [Example 1(e), 2-Amino-6-methoxy-4-[2-methoxycarbonyl-(1E)-vinyl]phenol hydrochloride]",no dead case in 21 cases

# Source: patent EP0081321A1, “2-Aminophenol derivatives” (ONO PHARMACEUTICAL CO., LTD., priority 1981, dated 1983)
